Test results as given in BindingDB's records for doi:10.1021/acs.jnatprod.7b00282 (Chiba University, 2017).

assay: Inhibition of recombinant mouse N-terminal FLAG-tagged Notch1 (1704 to 2531 residues) expressed in human LS174T cells assessed as reduction in doxycycline-induced NICD expression after 12 hrs by Bright-Glo luciferase reporter gene assay

| Compound | IC50 |
| --- | --- |
| COC(=O)[C@@]1(O)C[C@@H](C)O[C@H]1O[C@@H]1C[C@@H]2CC[C@@H]3[C@H](CC[C@]4(C)[C@@H](C5=CC(=O)OC5)[C@H](O)C[C@]34O)[C@@]2(C=O)C[C@H]1O | 17300 nM |
| CC(=O)O[C@H]1C[C@@H](C)O[C@H]2O[C@@H]3C[C@@H]4CC[C@@H]5[C@H](CC[C@]6(C)[C@@H](C7=CC(=O)OC7)CC[C@]56O)[C@@]4(C=O)C[C@H]3O[C@]21O [CHEBI:2867] | 300 nM |
| C[C@@H]1C[C@H](O)[C@]2(O)O[C@@H]3C[C@@]4(C=O)[C@@H](CC[C@@H]5[C@@H]4CC[C@]4(C)[C@@H](C6=CC(=O)OC6)CC[C@]54O)C[C@H]3O[C@@H]2O1 [CHEBI:3329] | 800 nM |
| C[C@@H]1C[C@@]2(N=CCS2)[C@]2(O)O[C@@H]3C[C@@]4(C=O)[C@@H](CC[C@@H]5[C@@H]4CC[C@]4(C)[C@@H](C6=CC(=O)OC6)CC[C@]54O)C[C@H]3O[C@@H]2O1 [Uscharin] | 400 nM |
| C[C@@H]1C[C@@]2(NC(=O)CS2)[C@]2(O)O[C@@H]3C[C@@]4(C=O)[C@@H](CC[C@@H]5[C@@H]4CC[C@]4(C)[C@@H](C6=CC(=O)OC6)CC[C@]54O)C[C@H]3O[C@@H]2O1 | 300 nM |
| C[C@@H]1CC(=O)[C@]2(O)O[C@@H]3C[C@@]4(C=O)[C@@H](CC[C@@H]5[C@@H]4CC[C@]4(C)[C@@H](C6=CC(=O)OC6)CC[C@]54O)C[C@H]3O[C@@H]2O1 [CHEBI:9913] | 2400 nM |
| C[C@@H]1C[C@@]2(N=CCS2)[C@]2(O)O[C@@H]3C[C@@]4(C=O)[C@@H](CC[C@@H]5[C@@H]4CC[C@]4(C)[C@@H](C6=CC(=O)OC6)[C@H](O)C[C@]54O)C[C@H]3O[C@@H]2O1 | 700 nM |
| C[C@@H]1C[C@@]2(NCCS2)[C@]2(O)O[C@@H]3C[C@@]4(C=O)[C@@H](CC[C@@H]5[C@@H]4CC[C@]4(C)[C@@H](C6=CC(=O)OC6)CC[C@]54O)C[C@H]3O[C@@H]2O1 | 2000 nM |
